In patent US20250114345A1, “COMPOUNDS AND COMPOSITIONS AS CBP/P300 DEGRADERS AND USES THEREOF” (Oncopia Therapeutics, Inc. d/b/a/ SK Life Science Labs, priority 2023, published 2025) one finds Dmax and DC50 data, which are given here for 15 molecules.

One assay concerns the target T1, p300 (Homo sapiens, UniProt Q09472).
T1 construct: host or cells: A549 P300 HiBit cells
Put plainly: P300 degradation, HiBit technology in A549 P300 HiBit cells (2 h). Format: cell-based. The following applies: 2 hrs post treatment; for Dmax: A549, A549 P300 HiBit cells; for DC50: A549 P300 HiBit cells. In a few lines:
(§1)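 Degradation potency and Dmax came from luminescence after 10 min room-temperature lysis with HiBit detection buffer. Beforehand, HiBit-tagged A549 lines received serial compound dilutions (10 mM DMSO stocks) at 37 °C, 5% CO2. CBP cells were read at 24 h, p300 cells at 2 h.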

The next assay addresses T2, CBP (Homo sapiens, UniProt Q92793).
T2 construct: host or cells: A549 CBP HiBit cells
In words: CBP degradation, HiBit technology in A549 CBP HiBit cells (24 h). The class given is cell-based. The following applies: 24 hrs post treatment. Summed up:
as §1

T2 sequence (Q92793 whole entry): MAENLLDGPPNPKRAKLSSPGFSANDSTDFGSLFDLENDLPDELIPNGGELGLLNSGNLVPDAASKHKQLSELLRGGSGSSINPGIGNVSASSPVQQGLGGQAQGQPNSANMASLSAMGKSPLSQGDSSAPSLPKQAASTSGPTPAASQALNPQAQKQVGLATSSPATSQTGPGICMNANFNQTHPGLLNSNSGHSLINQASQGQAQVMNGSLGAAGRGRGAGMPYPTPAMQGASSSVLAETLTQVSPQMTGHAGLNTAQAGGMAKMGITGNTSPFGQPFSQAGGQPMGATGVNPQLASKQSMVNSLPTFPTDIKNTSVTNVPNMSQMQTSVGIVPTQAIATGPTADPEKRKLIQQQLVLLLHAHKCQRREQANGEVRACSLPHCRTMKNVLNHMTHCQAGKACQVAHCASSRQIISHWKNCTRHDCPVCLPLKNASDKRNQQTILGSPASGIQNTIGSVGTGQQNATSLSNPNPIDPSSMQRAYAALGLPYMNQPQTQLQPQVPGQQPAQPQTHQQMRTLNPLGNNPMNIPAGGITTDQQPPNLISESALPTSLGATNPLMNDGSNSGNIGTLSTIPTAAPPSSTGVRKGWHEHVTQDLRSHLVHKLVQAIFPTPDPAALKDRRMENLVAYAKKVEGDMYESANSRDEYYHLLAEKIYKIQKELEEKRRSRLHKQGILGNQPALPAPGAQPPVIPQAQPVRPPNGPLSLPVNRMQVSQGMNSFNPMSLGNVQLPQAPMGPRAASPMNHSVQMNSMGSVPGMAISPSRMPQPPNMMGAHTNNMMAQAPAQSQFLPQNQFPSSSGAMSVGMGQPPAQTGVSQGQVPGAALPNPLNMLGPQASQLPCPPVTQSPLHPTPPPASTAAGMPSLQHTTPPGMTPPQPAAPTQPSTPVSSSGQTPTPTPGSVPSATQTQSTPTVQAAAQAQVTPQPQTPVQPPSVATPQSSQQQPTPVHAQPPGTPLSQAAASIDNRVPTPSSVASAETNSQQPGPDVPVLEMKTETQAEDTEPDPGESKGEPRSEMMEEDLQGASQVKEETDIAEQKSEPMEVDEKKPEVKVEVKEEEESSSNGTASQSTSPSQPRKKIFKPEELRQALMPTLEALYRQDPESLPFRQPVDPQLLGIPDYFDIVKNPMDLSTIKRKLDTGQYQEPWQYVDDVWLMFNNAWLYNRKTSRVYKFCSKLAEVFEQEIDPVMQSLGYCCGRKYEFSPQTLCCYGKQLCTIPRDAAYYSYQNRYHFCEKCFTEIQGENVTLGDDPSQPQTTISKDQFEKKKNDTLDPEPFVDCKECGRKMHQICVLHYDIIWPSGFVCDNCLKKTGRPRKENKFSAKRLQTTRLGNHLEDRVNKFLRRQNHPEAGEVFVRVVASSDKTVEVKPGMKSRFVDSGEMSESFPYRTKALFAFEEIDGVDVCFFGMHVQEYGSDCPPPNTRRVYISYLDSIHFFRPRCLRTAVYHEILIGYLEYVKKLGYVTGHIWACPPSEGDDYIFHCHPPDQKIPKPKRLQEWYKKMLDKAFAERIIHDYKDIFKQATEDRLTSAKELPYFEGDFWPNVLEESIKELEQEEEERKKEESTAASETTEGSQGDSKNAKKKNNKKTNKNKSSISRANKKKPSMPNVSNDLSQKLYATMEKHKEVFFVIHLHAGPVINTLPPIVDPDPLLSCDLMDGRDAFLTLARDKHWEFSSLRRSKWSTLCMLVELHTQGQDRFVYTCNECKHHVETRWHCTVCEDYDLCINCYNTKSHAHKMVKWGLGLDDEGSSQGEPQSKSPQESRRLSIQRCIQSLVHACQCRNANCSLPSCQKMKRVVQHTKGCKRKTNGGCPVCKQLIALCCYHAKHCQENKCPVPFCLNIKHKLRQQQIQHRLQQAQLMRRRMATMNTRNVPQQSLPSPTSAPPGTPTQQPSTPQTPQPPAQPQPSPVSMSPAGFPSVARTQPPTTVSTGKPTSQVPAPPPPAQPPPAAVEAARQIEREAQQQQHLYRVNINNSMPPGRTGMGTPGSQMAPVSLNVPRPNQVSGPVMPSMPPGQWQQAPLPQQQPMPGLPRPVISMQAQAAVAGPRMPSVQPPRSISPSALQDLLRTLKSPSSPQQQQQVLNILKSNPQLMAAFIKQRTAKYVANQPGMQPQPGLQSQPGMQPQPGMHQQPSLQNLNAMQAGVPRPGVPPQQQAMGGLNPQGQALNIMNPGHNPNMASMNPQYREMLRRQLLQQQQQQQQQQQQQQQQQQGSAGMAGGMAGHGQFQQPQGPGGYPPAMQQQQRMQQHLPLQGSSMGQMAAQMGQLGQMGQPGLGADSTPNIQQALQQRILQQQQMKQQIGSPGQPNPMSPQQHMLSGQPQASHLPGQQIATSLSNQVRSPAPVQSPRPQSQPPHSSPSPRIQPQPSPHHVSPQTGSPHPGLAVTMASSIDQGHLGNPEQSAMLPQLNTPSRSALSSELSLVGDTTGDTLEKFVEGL
T1 sequence (Q09472 whole entry): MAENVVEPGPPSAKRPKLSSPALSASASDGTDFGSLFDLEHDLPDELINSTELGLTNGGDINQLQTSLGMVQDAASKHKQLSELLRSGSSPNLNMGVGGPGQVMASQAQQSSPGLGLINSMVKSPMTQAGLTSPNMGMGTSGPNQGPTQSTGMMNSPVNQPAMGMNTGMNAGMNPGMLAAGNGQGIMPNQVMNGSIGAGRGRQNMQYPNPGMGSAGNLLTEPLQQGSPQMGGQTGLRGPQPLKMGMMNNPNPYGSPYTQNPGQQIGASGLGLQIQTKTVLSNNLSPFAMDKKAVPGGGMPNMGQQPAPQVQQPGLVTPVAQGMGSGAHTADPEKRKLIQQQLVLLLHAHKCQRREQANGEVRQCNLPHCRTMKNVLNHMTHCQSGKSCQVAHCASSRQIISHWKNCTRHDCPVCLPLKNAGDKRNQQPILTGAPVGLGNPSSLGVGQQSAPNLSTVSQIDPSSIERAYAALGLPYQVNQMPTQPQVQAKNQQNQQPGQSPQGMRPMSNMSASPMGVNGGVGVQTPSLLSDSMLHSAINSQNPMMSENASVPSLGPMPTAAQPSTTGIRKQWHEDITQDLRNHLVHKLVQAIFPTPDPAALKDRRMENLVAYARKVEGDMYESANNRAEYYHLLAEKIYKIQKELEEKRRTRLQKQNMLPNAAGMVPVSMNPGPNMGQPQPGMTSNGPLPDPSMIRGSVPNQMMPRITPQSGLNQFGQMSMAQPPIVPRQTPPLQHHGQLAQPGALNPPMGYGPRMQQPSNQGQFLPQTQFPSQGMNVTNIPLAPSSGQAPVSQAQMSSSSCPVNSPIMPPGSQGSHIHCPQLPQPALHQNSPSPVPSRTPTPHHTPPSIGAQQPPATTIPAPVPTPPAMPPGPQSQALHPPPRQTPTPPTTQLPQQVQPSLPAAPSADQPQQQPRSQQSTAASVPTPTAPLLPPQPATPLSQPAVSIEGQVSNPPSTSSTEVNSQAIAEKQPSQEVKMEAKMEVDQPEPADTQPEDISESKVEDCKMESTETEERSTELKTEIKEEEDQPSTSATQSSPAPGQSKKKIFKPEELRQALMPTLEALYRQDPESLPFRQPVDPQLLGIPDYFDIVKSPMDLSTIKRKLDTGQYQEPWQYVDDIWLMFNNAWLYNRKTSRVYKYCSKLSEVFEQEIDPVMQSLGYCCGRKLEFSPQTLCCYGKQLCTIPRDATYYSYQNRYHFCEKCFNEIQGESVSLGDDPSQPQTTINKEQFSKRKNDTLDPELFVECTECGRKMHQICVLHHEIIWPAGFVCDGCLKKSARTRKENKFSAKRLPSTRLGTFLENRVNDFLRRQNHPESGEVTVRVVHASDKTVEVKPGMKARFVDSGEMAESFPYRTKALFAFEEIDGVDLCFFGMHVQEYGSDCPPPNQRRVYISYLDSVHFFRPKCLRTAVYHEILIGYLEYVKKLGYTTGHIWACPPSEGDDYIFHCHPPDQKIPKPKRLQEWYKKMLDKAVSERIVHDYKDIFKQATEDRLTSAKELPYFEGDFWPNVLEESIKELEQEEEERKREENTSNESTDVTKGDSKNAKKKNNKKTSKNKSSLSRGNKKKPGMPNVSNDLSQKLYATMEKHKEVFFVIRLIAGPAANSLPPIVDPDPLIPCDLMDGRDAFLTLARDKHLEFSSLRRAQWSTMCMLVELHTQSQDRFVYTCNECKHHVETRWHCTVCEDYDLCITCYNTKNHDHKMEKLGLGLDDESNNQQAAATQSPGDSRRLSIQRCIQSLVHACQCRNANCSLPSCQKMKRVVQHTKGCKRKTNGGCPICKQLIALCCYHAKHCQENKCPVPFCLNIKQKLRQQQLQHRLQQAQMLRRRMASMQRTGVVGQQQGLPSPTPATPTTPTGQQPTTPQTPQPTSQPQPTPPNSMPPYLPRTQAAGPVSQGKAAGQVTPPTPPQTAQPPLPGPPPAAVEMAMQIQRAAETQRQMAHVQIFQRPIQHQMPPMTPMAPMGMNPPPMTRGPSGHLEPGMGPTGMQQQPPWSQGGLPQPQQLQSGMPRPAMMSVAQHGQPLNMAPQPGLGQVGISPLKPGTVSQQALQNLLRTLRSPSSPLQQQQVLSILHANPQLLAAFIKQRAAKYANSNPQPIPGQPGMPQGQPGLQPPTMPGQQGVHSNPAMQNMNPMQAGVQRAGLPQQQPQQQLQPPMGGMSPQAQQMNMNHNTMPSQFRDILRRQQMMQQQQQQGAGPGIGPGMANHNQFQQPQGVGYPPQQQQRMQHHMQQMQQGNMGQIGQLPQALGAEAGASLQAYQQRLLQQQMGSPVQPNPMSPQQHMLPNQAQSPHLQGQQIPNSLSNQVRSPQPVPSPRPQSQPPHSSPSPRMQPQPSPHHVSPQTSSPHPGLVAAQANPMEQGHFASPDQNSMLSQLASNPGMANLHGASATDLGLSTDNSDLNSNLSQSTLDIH

With `Cc1cc2c(N3CCCc4nc(-c5ccc(C(=O)NCC#Cc6cc7c([C@@H]8CCC(=O)NC8=O)cccc7o6)nc5)ncc43)cc(C3CCOCC3)cc2n(C)c1=O` [Example B39, (S)-5-(5-(1,3-dimethyl-2-oxo-7-(tetrahydro-2H-pyran-4-yl)-1,2-dihydroquinolin-5-yl)-5,6,7,8-tetrahydropyrido[3,2-d]pyrimidin-2-yl)-N-(3-(4-(2,6-dioxopiperidin-3-yl)benzofuran-2-yl)prop-2-yn-1-yl)picolinamide], at p300, the Dmax is above 80% and the DC50 lay in the range of 1 to 9.9 nM. Also, at CBP, the DC50 is above 1000 nM and the Dmax is below 20%.

At p300, `Cc1cc(-c2ncc3c(n2)CCCN3c2cc(C3CCOCC3)cc3c2cc(C)c(=O)n3C)cnc1C(=O)NCC#Cc1ccc2occ(C3CCC(=O)NC3=O)c2c1` (stereo not drawn) [Example B42, 5-(5-(1,3-dimethyl-2-oxo-7-(tetrahydro-2H-pyran-4-yl)-1,2-dihydroquinolin-5-yl)-5,6,7,8-tetrahydropyrido[3,2-d]pyrimidin-2-yl)-N-(3-(3-(2,6-dioxopiperidin-3-yl)benzofuran-5-yl)prop-2-yn-1-yl)-3-methylpicolinamide] returned a Dmax of 60 to 79% and a DC50 of 1 to 9.9 nM. Also, on CBP, the DC50 is above 1000 nM and the Dmax was below 20%.

At p300, `Cc1cc2c(N3CCCc4nc(-c5ccc(C(=O)NCC#Cc6cc7c(C8CCC(=O)NC8=O)cccc7o6)nc5)ncc43)cc(C3CCOCC3)nc2n(C)c1=O` (stereo not drawn) [Example B47, 5-(5-(6,8-dimethyl-7-oxo-2-(tetrahydro-2H-pyran-4-yl)-7,8-dihydro-1,8-naphthyridin-4-yl)-5,6,7,8-tetrahydropyrido[3,2-d]pyrimidin-2-yl)-N-(3-(4-(2,6-dioxopiperidin-3-yl)benzofuran-2-yl)prop-2-yn-1-yl)picolinamide] came in with a maximal degradation (Dmax) above 80% and a 50% degradation concentration (DC50) below 1 nM. On CBP, this molecule gave a DC50 above 1000 nM and a Dmax below 20%.

On p300, `Cc1cc2c(N3CCCc4nc(-c5ccc(C(=O)NCC#Cc6cc7c([C@H]8CCC(=O)NC8=O)cccc7o6)nc5)ncc43)cc(C3CCOCC3)nc2n(C)c1=O` [Example B48, (R)-5-(5-(6,8-dimethyl-7-oxo-2-(tetrahydro-2H-pyran-4-yl)-7,8-dihydro-1,8-naphthyridin-4-yl)-5,6,7,8-tetrahydropyrido[3,2-d]pyrimidin-2-yl)-N-(3-(4-(2,6-dioxopiperidin-3-yl)benzofuran-2-yl)prop-2-yn-1-yl)picolinamide] yielded a Dmax above 80% and a DC50 below 1 nM. Further, on CBP, the DC50 lay in the range of 100 to 999 nM and the Dmax was below 20%.

Consider `Cc1cc2c(N3CCCc4nc(-c5ccc(C(=O)NCC#Cc6cc7c([C@@H]8CCC(=O)NC8=O)cccc7o6)nc5)ncc43)cc(C3CCOCC3)nc2n(C)c1=O` [Example B49, (S)-5-(5-(6,8-dimethyl-7-oxo-2-(tetrahydro-2H-pyran-4-yl)-7,8-dihydro-1,8-naphthyridin-4-yl)-5,6,7,8-tetrahydropyrido[3,2-d]pyrimidin-2-yl)-N-(3-(4-(2,6-dioxopiperidin-3-yl)benzofuran-2-yl)prop-2-yn-1-yl)picolinamide], for which the Dmax on p300 is above 80%; on CBP, below 20%. The DC50 is 1 to 9.9 nM on p300 and above 1000 nM at CBP.

Consider `Cc1cc2c(N3CCCc4nc(-c5ccc(C(=O)NCC#Cc6ccc7occ(C8CCC(=O)NC8=O)c7c6)nc5)ncc43)nc(N3CCOCC3)nc2n(C)c1=O` (stereo not drawn) [Example B51, 5-(5-(6,8-dimethyl-2-morpholino-7-oxo-7,8-dihydropyrido[2,3-d]pyrimidin-4-yl)-5,6,7,8-tetrahydropyrido[3,2-d]pyrimidin-2-yl)-N-(3-(3-(2,6-dioxopiperidin-3-yl)benzofuran-5-yl)prop-2-yn-1-yl)picolinamide], for which the Dmax on p300 was 40 to 59%; on CBP it was below 20%. Besides, the values for the DC50 on p300 and at CBP were 1 to 9.9 nM and above 1000 nM, respectively.

Turning to `Cc1cc2c(N3CCCc4nc(-c5ccc(C(=O)NCC#Cc6ccc7occ(C8CCC(=O)NC8=O)c7c6)nc5)ncc43)cc(C3CCOCC3)cc2n(C)c1=O` (stereo not drawn) [Example B53, 5-(5-(1,3-dimethyl-2-oxo-7-(tetrahydro-2H-pyran-4-yl)-1,2-dihydroquinolin-5-yl)-5,6,7,8-tetrahydropyrido[3,2-d]pyrimidin-2-yl)-N-(3-(3-(2,6-dioxopiperidin-3-yl)benzofuran-5-yl)prop-2-yn-1-yl)picolinamide], the Dmax at p300 was above 80%; at CBP, below 20%. In addition, the values for the DC50 on p300 and at CBP were below 1 nM and above 1000 nM, respectively.

For `Cc1cc2c(N3CCCc4nc(-c5ccc(C(=O)NCC#Cc6ccc7occ([C@H]8CCC(=O)NC8=O)c7c6)nc5)ncc43)cc(C3CCOCC3)cc2n(C)c1=O` [Example B54, (R)-5-(5-(1,3-dimethyl-2-oxo-7-(tetrahydro-2H-pyran-4-yl)-1,2-dihydroquinolin-5-yl)-5,6,7,8-tetrahydropyrido[3,2-d]pyrimidin-2-yl)-N-(3-(3-(2,6-dioxopiperidin-3-yl)benzofuran-5-yl)prop-2-yn-1-yl)picolinamide], on p300, the Dmax was above 80% and the DC50 was below 1 nM. Also, on CBP, the 50% degradation concentration (DC50) was above 1000 nM and the Dmax was below 20%.

As for `Cc1cc2c(N3CCCc4nc(-c5ccc(C(=O)NCC#Cc6ccc7occ([C@@H]8CCC(=O)NC8=O)c7c6)nc5)ncc43)cc(C3CCOCC3)cc2n(C)c1=O` [Example B55, (S)-5-(5-(1,3-dimethyl-2-oxo-7-(tetrahydro-2H-pyran-4-yl)-1,2-dihydroquinolin-5-yl)-5,6,7,8-tetrahydropyrido[3,2-d]pyrimidin-2-yl)-N-(3-(3-(2,6-dioxopiperidin-3-yl)benzofuran-5-yl)prop-2-yn-1-yl)picolinamide], on p300, the Dmax was above 80% and the DC50 lay within 1 to 9.9 nM. Further, at CBP, the DC50 is above 1000 nM and the Dmax is below 20%.

On p300, `Cc1cc2c(N3CCCc4nc(-c5ccc(C(=O)NCC#Cc6cc7c(C8CCC(=O)NC8=O)cccc7o6)nc5)ncc43)cc(C(C)C)nc2n(C)c1=O` (stereo not drawn) [Example B56, N-(3-(4-(2,6-dioxopiperidin-3-yl)benzofuran-2-yl)prop-2-yn-1-yl)-5-(5-(2-isopropyl-6,8-dimethyl-7-oxo-7,8-dihydro-1,8-naphthyridin-4-yl)-5,6,7,8-tetrahydropyrido[3,2-d]pyrimidin-2-yl)picolinamide] showed a Dmax above 80% and a DC50 of 1 to 9.9 nM. Also, on CBP, the DC50 was above 1000 nM and the Dmax was below 20%.

Regarding `Cc1cc2c(N3CCOc4cc(-c5ccc(C(=O)NCC#Cc6ccc7occ(C8CCC(=O)NC8=O)c7c6)nc5)c(F)cc43)cc(N3CC4(COC4)C3)cc2n(C)c1=O` (stereo not drawn) [Example B58, 5-(4-(1,3-dimethyl-2-oxo-7-(2-oxa-6-azaspiro[3.3]heptan-6-yl)-1,2-dihydro-quinolin-5-yl)-6-fluoro-3,4-dihydro-2H-benzo[b][1,4]oxazin-7-yl)-N-(3-(3-(2,6-dioxopiperidin-3-yl)benzofuran-5-yl)prop-2-yn-1-yl)picolinamide], the Dmax on p300 is above 80%; at CBP it was below 20%. For the same molecule, the DC50 on p300 is 1 to 9.9 nM; at CBP it was above 1000 nM.

At p300, `Cc1cc(-c2ncc(N(C)c3cc(C4CCOCC4)cc4c3cc(C)c(=O)n4C)cn2)cnc1C(=O)NCC#Cc1cc2c(C3CCC(=O)NC3=O)cccc2o1` (stereo not drawn) [Example B59, 5-(5-((1,3-dimethyl-2-oxo-7-(tetrahydro-2H-pyran-4-yl)-1,2-dihydroquinolin-5-yl) (methyl)amino)pyrimidin-2-yl)-N-(3-(4-(2,6-dioxopiperidin-3-yl)benzofuran-2-yl)prop-2-yn-1-yl)-3-methylpicolinamide] had a Dmax above 80% and a DC50 of 1 to 9.9 nM. Besides, on CBP, the DC50 is above 1000 nM and the Dmax is below 20%.

As for `Cc1cc2c(N3CCCc4nc(-c5ccc(C(=O)NCC#Cc6oc7cccc(C8CCC(=O)NC8=O)c7c6F)nc5)ncc43)cc(C3CCOCC3)cc2n(C)c1=O` (stereo not drawn) [Example B60, 5-(5-(1,3-dimethyl-2-oxo-7-(tetrahydro-2H-pyran-4-yl)-1,2-dihydroquinolin-5-yl)-5,6,7,8-tetrahydropyrido[3,2-d]pyrimidin-2-yl)-N-(3-(4-(2,6-dioxopiperidin-3-yl)-3-fluorobenzo-furan-2-yl)prop-2-yn-1-yl)picolinamide], the figures for the Dmax on p300 and at CBP were above 80% and below 20%, respectively. For the same molecule, the DC50 was 1 to 9.9 nM at p300 and above 1000 nM at CBP.

Turning to `Cc1cc2c(N3CCCc4nc(-c5ccc(C(=O)NCC#Cc6ccc7occ(C8CCC(=O)NC8=O)c7c6)nc5)ncc43)cc(N3CCOCC3)nc2n(C)c1=O` (stereo not drawn) [Example B61, 5-(5-(6,8-dimethyl-2-morpholino-7-oxo-7,8-dihydro-1,8-naphthyridin-4-yl)-5,6,7,8-tetrahydropyrido[3,2-d]pyrimidin-2-yl)-N-(3-(3-(2,6-dioxopiperidin-3-yl)benzofuran-5-yl)prop-2-yn-1-yl)picolinamide], at p300, the maximal degradation (Dmax) was 60 to 79% and the DC50 was in the range of 1 to 9.9 nM. On CBP, this molecule came in with a DC50 above 1000 nM and a Dmax below 20%.

For `Cc1cc2c(N3CCCc4nc(-c5ccc(C(=O)NCC#Cc6ccc7occ(C8CCC(=O)NC8=O)c7c6)nc5)ncc43)nc(N3CCOCC3)cc2n(C)c1=O` (stereo not drawn) [Example B62, 5-(5-(1,3-dimethyl-7-morpholino-2-oxo-1,2-dihydro-1,6-naphthyridin-5-yl)-5,6,7,8-tetrahydropyrido[3,2-d]pyrimidin-2-yl)-N-(3-(3-(2,6-dioxopiperidin-3-yl)benzofuran-5-yl)prop-2-yn-1-yl)picolinamide], the Dmax on p300 was above 80%; at CBP, below 20%. Besides, the DC50 on p300 is 1 to 9.9 nM; on CBP, above 1000 nM.

As usually defined, the Dmax is the largest share of the target that was removed. A high value points to a fuller loss of target. In general, DC50 refers to the concentration giving 50% degradation. Read a high DC50 as degradation only at high concentration.
